pEC50: −log10 of the molar value. Where two headings read alike, the source gives them in different places.
Tests used:
[1] = Cytotoxicity, cell growth (CC50) in HEL cells; assay type: cell-based; conditions: human, concentration reducing cell growth by 50%
TK− VZV strain = test: microbe, parasite or virus in culture; assay type: cell-based, varicella-zoster virus (VZV) strain 07−1; conditions: concentration reducing virus plaque formation by 50%
HEL cells = test: Cytotoxicity, cell morphology (MCC) in HEL cells; assay type: cell-based, human; conditions: minimum cytotoxic concentration causing microscopically detectable alteration of cell morphology
Description: The cytotoxicity of the tested compounds toward the uninfected host cells was defined as the minimum cytotoxic concentration (MCC) that causes a microscopically detectable alteration of normal cell morphology.

TK+ VZV strain = test: microbe, parasite or virus in culture; assay type: cell-based, varicella-zoster virus (VZV) strain Oka; conditions: concentration reducing virus plaque formation by 50%

## Nc1nc2c(ncn2COCCO)c(=O)[nH]1 [Acyclovir]
[1]; HEL cells (uninfected)
  CC50: > 440 µM

## O=c1[nH]c(=O)n([C@H]2C[C@H](O)[C@@H](CO)O2)cc1/C=C/Br [Brivudin, reference compound]
TK− VZV strain; Human alphaherpesvirus 3, HEL, read-out: Antiviral Activity EC50, TK− VZV Strain, HEL cell cultures
  pEC50: 4.60
TK− VZV strain; read-out: Antiviral Activity EC50, TK− VZV Strain, HEL cell cultures
  pEC50: 4.86
[1]
  CC50: > 300 µM
HEL cells
  Cytotoxicity, Cell Morphology (MCC): >300 μM
TK+ VZV strain; Human alphaherpesvirus 3, HEL, read-out: Antiviral Activity EC50, TK+ VZV Strain, HEL cell cultures
  pEC50: 7.89
TK+ VZV strain; read-out: Antiviral Activity EC50, TK+ VZV Strain, HEL cell cultures
  pEC50: 8.11

Reference: paper PMC6273621, “Synthesis and the Biological Activity of Phosphonylated 1,2,3-Triazolenaphthalimide Conjugates” (Molecules, 2016)
